Assay results reported in patent US20040192672A1, “Iodobenzopyran-4-one derivatives having fungicidal activity” (priority 2001, published 2004).

Assays:
Assay type in all cases: in vivo
[1] = tested on: wheat powdery mildew (Blumeria graminis); assay: Field test of intensity of attack on winter wheat; settings: 125 g of active ingredient/ha per application (A and B), 52 days after Application B, winter wheat field plots
Method: (§1) The compounds were tested for their activity against wheat powdery mildew (Blumeda graminis).
(§2) Winter wheat (Appolo variety) was planted in France (department of Marne) in 1 m^2 plots, at the rate of 200 kg/ha (soil: coloured rendzina) at a depth of 3 cm. The compounds of the invention were applied to the wheat plants in two portions: Application A at the 1 cm ear stage and then Application B at the second visible node stage. Each of these applications was carried out by spraying an aqueous solution of the compounds at a dose of 125 g of active ingredient/ha.
(§3) During Application A, the intensity of attack by the fungus Blumeria graminis is estimated at 3% of the total foliar volume.
The tests of intensity of attack are carried out 52 days after Application B by evaluating the percentage of affected surface area of the second leaves (counted from the ear).

[2] = tested on: wheat powdery mildew (Blumeria graminis); assay: Field test of frequency of attack on winter wheat; settings: 125 g of active ingredient/ha per application (A and B), same conditions as Table 1
Method: as §1, §2, §3
Under the same conditions, a test of frequency of attack was performed by evaluating the percentage of second leaf (from the ear) attacked by the fungus Blumeria graminis.

[3] = tested on: powdery mildew (Blumeria graminis f. sp. tritici) strains resistant to strobilurin derivatives; assay: Greenhouse test on pathogenic strains resistant to strobilurin derivatives; settings: wheat, 13 days of incubation
Method: This example gives an illustration of the biological efficacy of the compounds of formula (I) on pathogenic strains resistant to strobilurin derivatives.
The experiment was performed in a greenhouse.
Resistant strains were isolated and samples taken in 2001 in the north of Germany in the Bremen region in a place treated with pyraclostrobin and with picoxystrobin. These strains are characterized by their resistance to these strobilurin-type compounds. They were then kept in a controlled-environment chamber on wheat plants (Kanzler variety) treated with trifloxystrobin.
The tested compounds were sprayed on the wheat plants using solutions for application diluted in water to a volume equivalent to 250 l/ha. 24 h later, the plants were inoculated with powdery mildew (Blumeria graminis f. sp. tritici).
The extent of the disease was evaluated on each plant after 13 days of incubation.

[4] = tested on: wheat powdery mildew (Blumeria graminis f. sp. tritici); assay: Greenhouse preventive synergy test, wheat powdery mildew
Method: (§4) This example gives an illustration of the synergistic effect obtained using the compounds according to the invention in the form of a mixture with compounds of the strobilurin type, in particular trifloxystrobin, triazole, in particular fluquinconazole. The compounds according to the invention were tested in a greenhouse under preventive conditions.
(§5) The combinations of active ingredients in Table 4 were evaluated.
(§6) The compounds and mixtures tested were sprayed on wheat plants:
(§7) volume for application equivalent to 250 l/ha.
(§8) On the day following the application, the wheat plants were inoculated with powdery mildew (Blumeria graminis f. sp. tritici), brown rust (Puccinia recondita), glume blotches (Septoria tritici and Septoria nodorum) and the barley plants with powdery mildew (Blumeria graminis f. sp. hordei). Once the diseases had developed, the evaluation was made by determining the extent of disease per pot.
(§9) The level of synergy was calculated using the Colby formula in order to calculate the theoretical efficacy and to compare it to the observed efficacy:
(§10) Theoretical efficacy of A+B=efficacy of A (%)+efficacy of B (%)−[efficacy of A (%)×efficacy of B (%)/100]

[5] = tested on: barley powdery mildew (Blumeria graminis f. sp. hordei); assay: Greenhouse preventive synergy test, barley powdery mildew
Method: as §4, §5, §6, §7, §8, §9, §10

[6] = tested on: wheat brown rust (Puccinia recondita); assay: Greenhouse preventive synergy test, wheat brown rust
Method: as §4, §5, §6, §7, §8, §9, §10

[7] = tested on: wheat glume blotch (Septoria tritici); assay: Greenhouse preventive synergy test, wheat glume blotch (Septoria tritici)
Method: as §4, §5, §6, §7, §8, §9, §10

[8] = tested on: wheat glume blotch (Septoria nodorum); assay: Greenhouse preventive synergy test, wheat glume blotch (Septoria nodorum)
Method: as §4, §5, §6, §7, §8, §9, §10

| Structure (SMILES) | % affected surface area per (second) leaf [1] | % of second leaf attacked [2] | Percentage of leaves affected by powdery mildew ([3]; 31 g/ha) | Percentage of leaves affected by powdery mildew ([3]; 62 g/ha) | Observed efficacy ([4]; Table 5, 6 g/ha) | Observed efficacy ([4]; Table 10, 16 g/ha) | Observed efficacy ([5]; Table 6, 12 g/ha) | Observed efficacy ([5]; Table 11, 16 g/ha) | other results |
| --- | --- | --- | --- | --- | --- | --- | --- | --- | --- |
| CCCc1c(OCC)oc2ccc(I)cc2c1=O [Compound 1, 2-ethoxy-6-iodo-3-propylbenzopyran-4-one] | 0.56% | 28.0% | 0% | 0% | 25% | 50% | 50% | 50% | Observed efficacy ([4]; Table 10, 6 g/ha): 25%; Observed efficacy ([4]; Table 10, 25 g/ha): 75%; Observed efficacy ([5]; Table 11, 25 g/ha): 75%; Observed efficacy ([6]; Table 7, 50 g/ha): 0%; Observed efficacy ([7]; Table 8, 50 g/ha): 0%; Observed efficacy ([8]; Table 9, 50 g/ha): 0% |
| CCCOc1oc2ccc(I)cc2c(=O)c1CCC [Compound 2, 6-iodo-2-propoxy-3-propylbenzopyran-4-one] | 2.53% |  |  |  |  |  |  |  |  |
| CCCCOc1oc2ccc(I)cc2c(=O)c1CCC [Compound 3, 2-butoxy-6-iodo-3-propylbenzopyran-4-one] | 2.51% | 54.0% |  |  |  |  |  |  |  |
| Fc1ccc(Oc2ccnc3cc(Cl)cc(Cl)c23)cc1 [Compound B, quinoxyfen] | 4.91% | 73.3% |  |  |  |  |  |  |  |
| CON=C(C(=O)OC)c1ccccc1CON=C(C)c1cccc(C(F)(F)F)c1 [Trifloxystrobin] |  |  | 100% | 100% |  | 30% |  | 0% | Percentage of leaves affected by powdery mildew ([3]; 125 g/ha): 100%; Percentage of leaves affected by powdery mildew ([3]; 250 g/ha): 100%; Observed efficacy ([4]; Table 10, 31 g/ha): 40%; Observed efficacy ([4]; Table 10, 62 g/ha): 50%; Observed efficacy ([5]; Table 11, 62 g/ha): 0% |
| O=c1c2cc(F)ccc2nc(-n2cncn2)n1-c1ccc(Cl)cc1Cl [fluquinconazole] |  |  |  |  | 0% |  | 25% |  | Observed efficacy ([4]; Table 5, 12 g/ha): 0%; Observed efficacy ([4]; Table 5, 31 g/ha): 0%; Observed efficacy ([5]; Table 6, 25 g/ha): 25%; Observed efficacy ([5]; Table 6, 62 g/ha): 75%; Observed efficacy ([6]; Table 7, 100 g/ha): 60%; Observed efficacy ([7]; Table 8, 100 g/ha): 60%; Observed efficacy ([8]; Table 9, 100 g/ha): 75% |
